Results taken from ChEMBL document CHEMBL5729731, “Imidazole-containing inhibitors of ALK2 kinase” (2023).

Molecular target: T1, Activin receptor type-1 (Homo sapiens, UniProt Q04771)
T1 sequence (Q04771 whole entry): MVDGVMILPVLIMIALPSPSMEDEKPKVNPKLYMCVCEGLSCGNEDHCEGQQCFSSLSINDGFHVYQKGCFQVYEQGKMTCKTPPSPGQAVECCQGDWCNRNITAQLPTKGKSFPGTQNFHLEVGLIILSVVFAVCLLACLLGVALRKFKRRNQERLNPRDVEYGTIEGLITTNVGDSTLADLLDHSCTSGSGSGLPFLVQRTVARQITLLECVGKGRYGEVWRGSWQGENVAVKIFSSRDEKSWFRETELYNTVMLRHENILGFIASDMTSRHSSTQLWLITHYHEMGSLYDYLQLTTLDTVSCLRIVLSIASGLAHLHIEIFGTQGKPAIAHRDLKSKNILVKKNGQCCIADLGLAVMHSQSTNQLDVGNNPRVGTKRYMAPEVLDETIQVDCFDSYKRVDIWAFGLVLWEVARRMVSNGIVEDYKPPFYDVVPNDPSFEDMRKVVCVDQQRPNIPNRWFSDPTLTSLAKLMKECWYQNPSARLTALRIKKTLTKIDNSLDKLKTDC
Assay: Biochemical assay: Biochemical assays to measure the inhibitory effects of the compounds were performed by ThermoFisher Scientific (Life Technologies). ALK2 inhibition was tested using LanthaScreen Eu Kinase Binding Assay screening protocol.

IC50: < 100 nM
SMILES: COc1cc(-n2cnc(Nc3nc(-c4cccc(CO)c4)nc4sc(CO)cc34)c2)cc(OC)c1OC
